Laboratory results published in PubChem BioAssay (NCI).
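How tested: cells in 96-well plates exposed to compound for 48 hours at five concentrations. GI50 marks 50% less growth. TGI: concentration producing complete growth inhibition.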

Key:
Assay in all cases: NCI tumour cell line growth inhibition, 48 h
NCI-H522 lung = test system: NCI-H522 lung
MOLT-4 leukemia = test system: MOLT-4 leukemia
MDA-N = test system: MDA-N
HL-60(TB) leukemia = test system: HL-60(TB) leukemia
HT29 colon = test system: HT29 colon
PC-3 prostate = test system: PC-3 prostate
SF-268 CNS = test system: SF-268 CNS
SR leukemia = test system: SR leukemia
COLO 205 colon = test system: COLO 205 colon
RPMI-8226 leukemia = test system: RPMI-8226 leukemia
HCC-2998 colon = test system: HCC-2998 colon
OVCAR-5 ovarian = test system: OVCAR-5 ovarian
OVCAR-3 ovarian = test system: OVCAR-3 ovarian
HOP-18 NSCLC = test system: HOP-18 NSCLC
MDA-MB-435 = test system: MDA-MB-435
SN12C renal = test system: SN12C renal
KM12 colon = test system: KM12 colon
SF-295 CNS = test system: SF-295 CNS
DLD-1 colon = test system: DLD-1 colon
SK-MEL-5 melanoma = test system: SK-MEL-5 melanoma
A498 renal = test system: A498 renal
U251 CNS = test system: U251 CNS
EKVX NSCLC = test system: EKVX NSCLC
HS 578T breast = test system: HS 578T breast
UACC-257 melanoma = test system: UACC-257 melanoma
SNB-19 CNS = test system: SNB-19 CNS
A549 NSCLC = test system: A549 NSCLC
NCI-H460 lung = test system: NCI-H460 lung
OVCAR-8 ovarian = test system: OVCAR-8 ovarian
SK-OV-3 ovarian = test system: SK-OV-3 ovarian
ACHN renal = test system: ACHN renal
MALME-3M melanoma = test system: MALME-3M melanoma
NCI/ADR-RES ovarian = test system: NCI/ADR-RES ovarian
M14 melanoma = test system: M14 melanoma
CCRF-CEM leukemia = test system: CCRF-CEM leukemia
HCT-116 colon = test system: HCT-116 colon
NCI-H226 lung = test system: NCI-H226 lung
TK-10 renal = test system: TK-10 renal
IGROV1 ovarian = test system: IGROV1 ovarian
NCI-H23 lung = test system: NCI-H23 lung
HOP-92 NSCLC = test system: HOP-92 NSCLC
SK-MEL-28 melanoma = test system: SK-MEL-28 melanoma
LXFL 529 NSCLC = test system: LXFL 529 NSCLC
HOP-62 NSCLC = test system: HOP-62 NSCLC
MDA-MB-231 breast = test system: MDA-MB-231 breast
UO-31 renal = test system: UO-31 renal
K-562 leukemia = test system: K-562 leukemia
OVCAR-4 ovarian = test system: OVCAR-4 ovarian
HCT-15 colon = test system: HCT-15 colon
786-0 renal = test system: 786-0 renal
SF-539 CNS = test system: SF-539 CNS
M19-MEL melanoma = test system: M19-MEL melanoma
MCF7 breast = test system: MCF7 breast
DU-145 prostate = test system: DU-145 prostate
BT-549 breast = test system: BT-549 breast
UACC-62 melanoma = test system: UACC-62 melanoma
SNB-75 CNS = test system: SNB-75 CNS
SW-620 colon = test system: SW-620 colon
RXF 393 renal = test system: RXF 393 renal
SK-MEL-2 melanoma = test system: SK-MEL-2 melanoma
KM20L2 colon = test system: KM20L2 colon
SNB-78 CNS = test system: SNB-78 CNS
LOX IMVI melanoma = test system: LOX IMVI melanoma
DMS 273 small cell lung = test system: DMS 273 small cell lung

COc1ccc(/C=N/N/C(O)=c2/sc(=C(C#N)C#N)n(-c3ccccc3)c2=N)cc1
TGI (NCI-H522 lung): > 100 µM | TGI (MOLT-4 leukemia): > 100 µM | TGI (MDA-N): > 100 µM | TGI (HL-60(TB) leukemia): > 100 µM | TGI (HT29 colon): > 100 µM | TGI (PC-3 prostate): > 100 µM | TGI (SF-268 CNS): > 100 µM | TGI (SR leukemia): > 100 µM | TGI (COLO 205 colon): > 100 µM | TGI (RPMI-8226 leukemia): > 100 µM | TGI (HCC-2998 colon): > 100 µM | TGI (OVCAR-5 ovarian): > 100 µM | TGI (OVCAR-3 ovarian): > 100 µM | TGI (HOP-18 NSCLC): > 100 µM | TGI (MDA-MB-435): > 100 µM | TGI (SN12C renal): > 100 µM | TGI (KM12 colon): > 100 µM | TGI (SF-295 CNS): > 70.5 µM | TGI (DLD-1 colon): > 100 µM | TGI (SK-MEL-5 melanoma): > 100 µM | TGI (A498 renal): > 100 µM | TGI (U251 CNS): > 100 µM | TGI (EKVX NSCLC): > 100 µM | TGI (HS 578T breast): > 100 µM | TGI (UACC-257 melanoma): > 100 µM | TGI (SNB-19 CNS): > 100 µM | TGI (A549 NSCLC): > 100 µM | TGI (NCI-H460 lung): > 100 µM | TGI (OVCAR-8 ovarian): > 100 µM | TGI (SK-OV-3 ovarian): > 100 µM | TGI (ACHN renal): > 100 µM | TGI (MALME-3M melanoma): > 100 µM | TGI (NCI/ADR-RES ovarian): > 100 µM | TGI (M14 melanoma): > 100 µM | TGI (CCRF-CEM leukemia): > 100 µM | TGI (HCT-116 colon): > 100 µM | TGI (NCI-H226 lung): > 100 µM | TGI (TK-10 renal): > 100 µM | TGI (IGROV1 ovarian): > 100 µM | TGI (NCI-H23 lung): > 100 µM | TGI (HOP-92 NSCLC): > 70.8 µM | TGI (SK-MEL-28 melanoma): > 100 µM | TGI (LXFL 529 NSCLC): > 100 µM | TGI (HOP-62 NSCLC): > 94 µM | TGI (MDA-MB-231 breast): > 100 µM | TGI (UO-31 renal): > 100 µM | TGI (K-562 leukemia): > 100 µM | TGI (OVCAR-4 ovarian): > 100 µM | TGI (HCT-15 colon): > 100 µM | TGI (786-0 renal): > 100 µM | TGI (SF-539 CNS): > 88.6 µM | TGI (M19-MEL melanoma): > 100 µM | TGI (MCF7 breast): > 100 µM | TGI (DU-145 prostate): > 100 µM | TGI (BT-549 breast): > 100 µM | TGI (UACC-62 melanoma): > 100 µM | TGI (SNB-75 CNS): 38.3 µM | TGI (SW-620 colon): > 100 µM

C[CH2][Sn]([CH2]C)([O]C(=O)c1c(F)cccc1F)[O][Sn]([CH2]C)([CH2]C)[O]C(=O)c1c(F)cccc1F
GI50 (NCI-H522 lung): 1.1 µM | TGI (NCI-H522 lung): 2.36 µM | GI50 (MOLT-4 leukemia): 23.4 µM | TGI (MOLT-4 leukemia): 88.3 µM | GI50 (HL-60(TB) leukemia): 26.5 µM | TGI (HL-60(TB) leukemia): 76.7 µM | GI50 (RXF 393 renal): 13.7 µM | TGI (RXF 393 renal): 26.6 µM | GI50 (HT29 colon): 19.8 µM | TGI (HT29 colon): 42.2 µM | GI50 (SK-MEL-2 melanoma): 14.4 µM | TGI (SK-MEL-2 melanoma): 27.7 µM | GI50 (SF-268 CNS): 15.3 µM | TGI (SF-268 CNS): 28.6 µM | GI50 (SR leukemia): 26.6 µM | TGI (SR leukemia): > 100 µM | GI50 (COLO 205 colon): 12.6 µM | TGI (COLO 205 colon): 25.1 µM | GI50 (HCC-2998 colon): 42.8 µM | TGI (HCC-2998 colon): > 100 µM | GI50 (OVCAR-5 ovarian): 17.9 µM | TGI (OVCAR-5 ovarian): 31.8 µM | GI50 (OVCAR-3 ovarian): 25.9 µM | TGI (OVCAR-3 ovarian): 78.1 µM | GI50 (HOP-18 NSCLC): 22.6 µM | TGI (HOP-18 NSCLC): 37.1 µM | GI50 (KM20L2 colon): 26.7 µM | TGI (KM20L2 colon): 68.8 µM | GI50 (SN12C renal): 16 µM | TGI (SN12C renal): 29.5 µM | GI50 (KM12 colon): > 100 µM | TGI (KM12 colon): > 100 µM | GI50 (SF-295 CNS): 20.1 µM | TGI (SF-295 CNS): 34.5 µM | GI50 (SK-MEL-5 melanoma): 18.2 µM | TGI (SK-MEL-5 melanoma): 32.3 µM | GI50 (A498 renal): 15 µM | TGI (A498 renal): 28.3 µM | GI50 (U251 CNS): 17.4 µM | TGI (U251 CNS): 31.2 µM | GI50 (EKVX NSCLC): 16.8 µM | TGI (EKVX NSCLC): 30.6 µM | GI50 (UACC-257 melanoma): 16.5 µM | TGI (UACC-257 melanoma): 30.2 µM | GI50 (SNB-19 CNS): 17.1 µM | TGI (SNB-19 CNS): 30.8 µM | GI50 (A549 NSCLC): > 100 µM | TGI (A549 NSCLC): > 100 µM | GI50 (SNB-78 CNS): 15.8 µM | TGI (SNB-78 CNS): 32.4 µM | GI50 (NCI-H460 lung): 20 µM | TGI (NCI-H460 lung): 40.6 µM | GI50 (OVCAR-8 ovarian): 17.2 µM | TGI (OVCAR-8 ovarian): 30.9 µM | GI50 (SK-OV-3 ovarian): 41.3 µM | TGI (SK-OV-3 ovarian): > 100 µM | GI50 (ACHN renal): 19.1 µM | TGI (ACHN renal): 33.2 µM | GI50 (MALME-3M melanoma): 14.9 µM | TGI (MALME-3M melanoma): 28.8 µM | GI50 (M14 melanoma): 18.1 µM | TGI (M14 melanoma): 32 µM | GI50 (CCRF-CEM leukemia): 3.85 µM | TGI (CCRF-CEM leukemia): 17.1 µM | GI50 (HCT-116 colon): 19 µM | TGI (HCT-116 colon): 34 µM | GI50 (NCI-H226 lung): 22 µM | TGI (NCI-H226 lung): 36.7 µM | GI50 (TK-10 renal): 19.2 µM | TGI (TK-10 renal): 33.3 µM | GI50 (IGROV1 ovarian): 69 µM | TGI (IGROV1 ovarian): > 100 µM | GI50 (NCI-H23 lung): 15.9 µM | TGI (NCI-H23 lung): 29.3 µM | GI50 (HOP-92 NSCLC): 18.8 µM | TGI (HOP-92 NSCLC): 32.9 µM | GI50 (SK-MEL-28 melanoma): 15.6 µM | TGI (SK-MEL-28 melanoma): 29 µM | GI50 (LXFL 529 NSCLC): 5.44 µM | TGI (LXFL 529 NSCLC): 18.4 µM | GI50 (HOP-62 NSCLC): 20.8 µM | TGI (HOP-62 NSCLC): 36.9 µM | GI50 (LOX IMVI melanoma): 16.1 µM | TGI (LOX IMVI melanoma): 29.9 µM | GI50 (UO-31 renal): 36 µM | TGI (UO-31 renal): > 100 µM | GI50 (K-562 leukemia): 8.61 µM | TGI (K-562 leukemia): 37.5 µM | GI50 (OVCAR-4 ovarian): 18.8 µM | TGI (OVCAR-4 ovarian): 33 µM | GI50 (HCT-15 colon): 17.9 µM | TGI (HCT-15 colon): 32.5 µM | GI50 (786-0 renal): 16 µM | TGI (786-0 renal): 29.7 µM | GI50 (SF-539 CNS): 14.9 µM | TGI (SF-539 CNS): 28.1 µM | GI50 (M19-MEL melanoma): 16.3 µM | TGI (M19-MEL melanoma): 30.9 µM | GI50 (DMS 273 small cell lung): 18.6 µM | TGI (DMS 273 small cell lung): 35.2 µM | GI50 (UACC-62 melanoma): 17.6 µM | TGI (UACC-62 melanoma): 31.4 µM | GI50 (SNB-75 CNS): 16.2 µM | TGI (SNB-75 CNS): 29.7 µM | GI50 (SW-620 colon): 16.3 µM | TGI (SW-620 colon): 29.9 µM
